# PubChem BioAssay (NCI)
#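 Cultured in 96-well plates, cells were exposed to test compound for 48 hours across five concentrations. TGI marks complete inhibition of growth.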
# Legend:
# Assay in all cases: growth of human tumour cells (NCI), 48 h
# A498 renal = tested on: A498 renal
# A549 NSCLC = tested on: A549 NSCLC
# ACHN renal = tested on: ACHN renal
# CAKI-1 renal = tested on: CAKI-1 renal
# CCRF-CEM leukemia = tested on: CCRF-CEM leukemia
# COLO 205 colon = tested on: COLO 205 colon
# DLD-1 colon = tested on: DLD-1 colon
# DMS 114 small cell lung = tested on: DMS 114 small cell lung
# DMS 273 small cell lung = tested on: DMS 273 small cell lung
# EKVX NSCLC = tested on: EKVX NSCLC
# HCC-2998 colon = tested on: HCC-2998 colon
# HCT-116 colon = tested on: HCT-116 colon
# HCT-15 colon = tested on: HCT-15 colon
# HL-60(TB) leukemia = tested on: HL-60(TB) leukemia
# HOP-18 NSCLC = tested on: HOP-18 NSCLC
# HOP-62 NSCLC = tested on: HOP-62 NSCLC
# HOP-92 NSCLC = tested on: HOP-92 NSCLC
# HT29 colon = tested on: HT29 colon
# IGROV1 ovarian = tested on: IGROV1 ovarian
# K-562 leukemia = tested on: K-562 leukemia
# KM12 colon = tested on: KM12 colon
# KM20L2 colon = tested on: KM20L2 colon
# LOX IMVI melanoma = tested on: LOX IMVI melanoma
# LXFL 529 NSCLC = tested on: LXFL 529 NSCLC
# M14 melanoma = tested on: M14 melanoma
# MALME-3M melanoma = tested on: MALME-3M melanoma
# MOLT-4 leukemia = tested on: MOLT-4 leukemia
# NCI-H226 lung = tested on: NCI-H226 lung
# NCI-H23 lung = tested on: NCI-H23 lung
# NCI-H460 lung = tested on: NCI-H460 lung
# NCI-H522 lung = tested on: NCI-H522 lung
# OVCAR-3 ovarian = tested on: OVCAR-3 ovarian
# OVCAR-4 ovarian = tested on: OVCAR-4 ovarian
# OVCAR-5 ovarian = tested on: OVCAR-5 ovarian
# OVCAR-8 ovarian = tested on: OVCAR-8 ovarian
# RPMI-8226 leukemia = tested on: RPMI-8226 leukemia
# RXF 393 renal = tested on: RXF 393 renal
# SF-268 CNS = tested on: SF-268 CNS
# SF-295 CNS = tested on: SF-295 CNS
# SF-539 CNS = tested on: SF-539 CNS
# SK-MEL-2 melanoma = tested on: SK-MEL-2 melanoma
# SK-MEL-28 melanoma = tested on: SK-MEL-28 melanoma
# SK-MEL-5 melanoma = tested on: SK-MEL-5 melanoma
# SK-OV-3 ovarian = tested on: SK-OV-3 ovarian
# SN12C renal = tested on: SN12C renal
# SNB-19 CNS = tested on: SNB-19 CNS
# SNB-75 CNS = tested on: SNB-75 CNS
# SNB-78 CNS = tested on: SNB-78 CNS
# SR leukemia = tested on: SR leukemia
# SW-620 colon = tested on: SW-620 colon
# TK-10 renal = tested on: TK-10 renal
# U251 CNS = tested on: U251 CNS
# UACC-257 melanoma = tested on: UACC-257 melanoma
# UACC-62 melanoma = tested on: UACC-62 melanoma
# UO-31 renal = tested on: UO-31 renal
# XF 498 CNS = tested on: XF 498 CNS
# 786-0 renal = tested on: 786-0 renal
# M19-MEL melanoma = tested on: M19-MEL melanoma
structure (smiles),measurement,setting,value
CC1=C(C(=O)NCc2ccccc2)C(c2ccco2)C(C(=O)NCc2ccccc2)=C(C)N1,TGI,A498 renal,> 100 µM
same,TGI,A549 NSCLC,> 100 µM
same,TGI,ACHN renal,> 100 µM
same,TGI,CAKI-1 renal,> 100 µM
same,TGI,CCRF-CEM leukemia,> 100 µM
same,TGI,COLO 205 colon,> 100 µM
same,TGI,DLD-1 colon,> 100 µM
same,TGI,DMS 114 small cell lung,> 100 µM
same,TGI,DMS 273 small cell lung,> 100 µM
same,TGI,EKVX NSCLC,> 100 µM
same,TGI,HCC-2998 colon,> 100 µM
same,TGI,HCT-116 colon,> 100 µM
same,TGI,HCT-15 colon,> 100 µM
same,TGI,HL-60(TB) leukemia,> 100 µM
same,TGI,HOP-18 NSCLC,> 100 µM
same,TGI,HOP-62 NSCLC,> 100 µM
same,TGI,HOP-92 NSCLC,> 100 µM
same,TGI,HT29 colon,> 100 µM
same,TGI,IGROV1 ovarian,> 100 µM
same,TGI,K-562 leukemia,> 100 µM
same,TGI,KM12 colon,> 100 µM
same,TGI,KM20L2 colon,> 100 µM
same,TGI,LOX IMVI melanoma,> 100 µM
same,TGI,LXFL 529 NSCLC,> 100 µM
same,TGI,M14 melanoma,> 100 µM
same,TGI,MALME-3M melanoma,> 100 µM
same,TGI,MOLT-4 leukemia,> 100 µM
same,TGI,NCI-H226 lung,> 100 µM
same,TGI,NCI-H23 lung,> 100 µM
same,TGI,NCI-H460 lung,> 100 µM
same,TGI,NCI-H522 lung,> 100 µM
same,TGI,OVCAR-3 ovarian,> 100 µM
same,TGI,OVCAR-4 ovarian,> 100 µM
same,TGI,OVCAR-5 ovarian,> 100 µM
same,TGI,OVCAR-8 ovarian,> 100 µM
same,TGI,RPMI-8226 leukemia,> 100 µM
same,TGI,RXF 393 renal,> 100 µM
same,TGI,SF-268 CNS,> 100 µM
same,TGI,SF-295 CNS,> 100 µM
same,TGI,SF-539 CNS,> 100 µM
same,TGI,SK-MEL-2 melanoma,92.6 µM
same,TGI,SK-MEL-28 melanoma,> 100 µM
same,TGI,SK-MEL-5 melanoma,> 100 µM
same,TGI,SK-OV-3 ovarian,> 100 µM
same,TGI,SN12C renal,> 100 µM
same,TGI,SNB-19 CNS,> 100 µM
same,TGI,SNB-75 CNS,> 100 µM
same,TGI,SNB-78 CNS,> 100 µM
same,TGI,SR leukemia,> 100 µM
same,TGI,SW-620 colon,> 100 µM
same,TGI,TK-10 renal,> 100 µM
same,TGI,U251 CNS,> 100 µM
same,TGI,UACC-257 melanoma,> 100 µM
same,TGI,UACC-62 melanoma,50.6 µM
same,TGI,UO-31 renal,> 100 µM
same,TGI,XF 498 CNS,> 100 µM
N#CNC1=NCCC(=O)N1CCc1c[nH]c2ccccc12,TGI,786-0 renal,> 100 µM
same,TGI,A549 NSCLC,> 100 µM
same,TGI,CCRF-CEM leukemia,> 100 µM
same,TGI,COLO 205 colon,> 100 µM
same,TGI,DLD-1 colon,> 100 µM
same,TGI,DMS 114 small cell lung,> 100 µM
same,TGI,DMS 273 small cell lung,> 100 µM
same,TGI,EKVX NSCLC,> 100 µM
same,TGI,HCC-2998 colon,> 100 µM
same,TGI,HCT-116 colon,> 100 µM
same,TGI,HCT-15 colon,> 100 µM
same,TGI,HL-60(TB) leukemia,> 100 µM
same,TGI,HOP-62 NSCLC,> 100 µM
same,TGI,HT29 colon,> 100 µM
same,TGI,IGROV1 ovarian,> 100 µM
same,TGI,K-562 leukemia,> 100 µM
same,TGI,KM12 colon,> 100 µM
same,TGI,LOX IMVI melanoma,> 100 µM
same,TGI,LXFL 529 NSCLC,> 100 µM
same,TGI,M14 melanoma,> 100 µM
same,TGI,M19-MEL melanoma,> 100 µM
same,TGI,MOLT-4 leukemia,> 100 µM
same,TGI,NCI-H226 lung,> 100 µM
same,TGI,NCI-H23 lung,> 100 µM
same,TGI,OVCAR-3 ovarian,> 100 µM
same,TGI,OVCAR-4 ovarian,> 100 µM
same,TGI,OVCAR-8 ovarian,> 100 µM
same,TGI,RPMI-8226 leukemia,> 100 µM
same,TGI,RXF 393 renal,> 100 µM
same,TGI,SF-268 CNS,> 100 µM
same,TGI,SF-295 CNS,> 100 µM
same,TGI,SF-539 CNS,> 100 µM
same,TGI,SK-MEL-28 melanoma,> 100 µM
same,TGI,SK-MEL-5 melanoma,> 100 µM
same,TGI,SK-OV-3 ovarian,> 100 µM
same,TGI,SN12C renal,> 100 µM
same,TGI,SNB-19 CNS,> 100 µM
same,TGI,SNB-75 CNS,> 100 µM
same,TGI,SNB-78 CNS,> 100 µM
same,TGI,SR leukemia,> 100 µM
same,TGI,SW-620 colon,> 100 µM
same,TGI,TK-10 renal,> 100 µM
same,TGI,UACC-257 melanoma,> 100 µM
same,TGI,UACC-62 melanoma,> 100 µM
same,TGI,UO-31 renal,> 100 µM
same,TGI,XF 498 CNS,> 100 µM
